In publication PMC10537604, “Development and Assessment of 1,5–Diarylpyrazole/Oxime Hybrids Targeting EGFR and JNK–2 as Antiproliferative Agents: A Comprehensive Study through Synthesis, Molecular Docking, and Evaluation” (Molecules, 2023):

Columns and labels:
[1] = test system: human hepatocellular carcinoma cell line HepG2; experiment: WST-8 antiproliferative assay, HepG2; assay type: cell-based; details: WST-8 assay, six concentrations 1-100 µM
[2] = test system: human pancreatic cancer cell line SUIT-2; experiment: WST-8 antiproliferative assay, SUIT-2; assay type: cell-based; details: WST-8 assay, six concentrations 1-100 µM
[3] = test system: human colorectal adenocarcinoma cell line DLD-1; experiment: WST-8 antiproliferative assay, DLD-1; assay type: cell-based; details: WST-8 assay, six concentrations 1-100 µM
[4] = Nitric oxide release, Griess colorimetric method; assay type: physicochemical; details: phosphate buffer pH 7.4, N-acetylcysteine
Procedure: For the indirect determination of NO, the Griess colorimetric approach was utilized, which includes spectrophotometry measurements of the stable decomposition products NO2^− and NO3^−. This method requires that NO3^− is first reduced to NO2^− and then NO2^− is determined by the Griess reaction that includes two steps, the first step is a diazotization reaction in which the NO-derived nitrogen agent, dinitrogen trioxide (N2O3), which is produced by the spontaneous oxidation of NO with sulfanilamide to form the diazonium ion, is used. […] In order to evaluate thiol-induced NO generation from the appropriate compounds, including NO-donating oximes 8a–b, 8d–i, and 10a–c, they were incubated in aqueous phosphate buffer of pH 7.4 in the presence of excess N-acetylcysteine, which serves as a source of thiols that are essential for the release of NO from oximes. The signal intensity of the dye is proportional to the amount of NO released. To quantify the amount of NO released, a standard curve was made by measuring the change in absorbance of various concentrations of standard sodium nitrite solutions treated by the same way. […] At the first hour, the amount of nitric oxide released increased in compounds 8i, 8b, and 8h, while the maximum release of nitric oxide occurring in compounds 8b and 8h was at 2 h. Then, the amount of nitic oxide released declined, which may explain the biological importance of oxime moiety as a source of nitric oxide release in comparison with ketone intermediates 7a–j and 9a–c, as shown in the anticancer activity of oxime derivatives.
The nitrite calibration curve in addition to the absorbance of the tested compounds were measured on Shimadzu UV-160, UV-Visible spectrophotometer (Shimadzu, Tokyo, Japan). The tested compounds were prepared as solutions in DMF and diluted with the buffer system until a concentration of 100 mM. N-Acetyl cysteine solution was prepared in a concentration of 500 mM in methanol. Griess reagent consists of 0.1% w/v NED solution in water and sulfanilamide solution (1% w/v of sulfanilamide in 5% w/v phosphoric acid). Nitrite standard solution (0.1 M sodium nitrite in water) stock solution was prepared, from which a dilute solution of 100 μM nitrite solution was prepared by dilution 1 mL of the stock solution to 1000 mL with phosphate buffer of pH 7.4. From this solution, 4 serials 2-fold dilutions were performed to generate different concentrations of the nitrite solution (100.00, 50.00, 25.00, and 12.50 μM) and these concentrations were used for nitrite calibration curve.
Sulfanilamide and NEDD solutions were kept at 25 °C; […] of sulfanilamide solution was added to each dilution of the prepared standard nitrite solution. The mixture was left at 25 °C for 5–10 min protected from light. To this mixture, […] of the NEDD solution was added and the mixture was again left for 5–10 min at 25 °C protected from light. […] A plot of the average absorbance value for each concentration of the nitrite standard solution as a function of “Y” against nitrite concentration as a function of “X” was constructed to generate a standard nitrite calibration curve at pH 7.4.
The amount of NO released from the tested compounds 8a–b, 8d–I, and 10a–c was measured using the Griess colorimetric method either in phosphate buffer of pH 7.4 in the presence of N-acetyl cysteine, which serves as a source of thiols. The amount of NO released from the tested compounds was measured relative to NO released from standard sodium nitrite solution.
Different solutions of the tested compounds 8a–b, 8d–i, and 10a–c in DMF were diluted using phosphate buffer of pH 7.4 till a final concentration of 100 mM (test solutions). To […] of different test solutions, […] of N-acetyl cysteine solution was added and the obtained solution was kept in an incubator at 37 °C (treated solutions). […]

JNK-2 = target: T1, JNK-2 (Homo sapiens, UniProt P45984); experiment: JNK-2 inhibitory assay (SimpleStep ELISA, pT183/Y185); assay type: biochemical; details: read-out: IC50 (µM) against JNK-2
T1 construct: HEK293 only for the control lysate
Procedure: The SimpleStep ELISA employs an affinity tag-labelled capture antibody and a reporter attached detector antibody to immunocapture the sample analyte in solution. This complete complex (capture antibody/analyte/detector antibody) is then immobilized via immunoaffinity of an anti-tag antibody coating the well. To perform the assay, samples or controls are added to the wells, followed by the antibody cocktail. After incubation, the wells are washed to remove unbound material. TMB substrate is added and during incubation is catalyzed by HRP, generating blue coloration. This reaction is then stopped by the addition of stop solution, completing any color change from blue to yellow. The signal is generated proportionally to the amount of bound analyte and the intensity is measured at 450 nm. Optionally, instead of the endpoint reading, the development of TMB can be recorded kinetically at 600 nm. An antibody cocktail can be prepared by combining an appropriate volume of the capture and detector antibodies immediately prior to assay. To make 3 mL of the antibody cocktail, combine 1.5 mL of capture antibody with 1.5 mL of detector antibody. Mix thoroughly and gently. Control lysate can be prepared from HEK293 cells, cultured in 10% FBS containing medium, then treated with 1 μg/mL anisomycin. After preparing all the reagents, samples, and control as instructed and following the previously published procedures [74, 75], add 50 µL of sample or control to the well, add 50 µL of the antibody cocktail, then incubate at room temperature for 1 h on a plate shaker set to 400 rpm, aspirate and wash each well three times with 350 μL with wash buffer, add 100 μL TMB substrate to each well and incubate for 15 min, then add 100 μL stop solution and measure the absorbance at 450 nm.

[5] = WST-8 cytotoxicity towards normal cell line PC12; assay type: cell-based, rat; details: rat, PC12 cells; WST-8 assay, six concentrations 1-100 μM; read-out: CC50 against PC12 cell line
Procedure: The evaluation of normal cell viability is fundamental in analyzing the efficacy of target compounds and is often used in conjunction with cytotoxicity tests to help understand how target compound toxicity affects normal cell health. […] A 100 μL aliquot of cells (10,000 cells/mL) was added to a 96 well plate and incubated for 24 h at 37 °C in a humidified incubator containing 5% CO2 in the air. […] Then, a 10 μL WST-8 solution (mixture of WST-8 and 1-methoxy PMS) was added to each well and the incubation continued for 3 h. The visible absorbance at 450 nm and 630 nm as the reference wavelength of each well was quantified using an MTP-310 absorbance microplate reader. Daunorubicin was used as a positive control. The results of cytotoxicity were recorded as growth inhibition percentages and as IC50 values.

Hela cells = experiment: Apoptosis assay, annexin V/PI flow cytometry; assay type: cell-based, human; details: concentration double the IC50, 24 h
Source text: For further investigation of the anticancer activity of compounds 8g and 8i, studies of apoptotic changes after treatment of Hela cells with these inhibitors were examined using fluorescent microscope and flowcytometry. Moreover, to discriminate between apoptosis and necrosis after the treatment of Hela cell with two inhibitors 8g and 8i at different concentrations, a fluorescent microscope was used to distinguish between apoptosis and necrosis based on their characteristic difference in morphology using annexin V and PI [52]. […] This was exposed in the cell membrane of the Hela cells after treatment with two inhibitors due to plasma membrane sprouting and chromatin concentration. The prolonged incubation of Hela cells with two inhibitors directed cells to necrosis, which was marked in red because of the PI staining of necrotic cells as a result of losing their dye-excluding ability owing to a loss of plasma membrane integrity and the dissolution of nuclear chromatin [53] (Figure S1).
Then, 200 µL of medium was added to separate cells, cells were centrifuged for 5 min, and supernatant was decanted. Then, it was washed twice with 100 µL PBS and 200 µL of buffer, 5 µL of PI& Annexin, and 200 µL of PBS was added for the test compounds. For control, 400 µL of PBS was added. […]

T1 sequence (P45984 whole entry): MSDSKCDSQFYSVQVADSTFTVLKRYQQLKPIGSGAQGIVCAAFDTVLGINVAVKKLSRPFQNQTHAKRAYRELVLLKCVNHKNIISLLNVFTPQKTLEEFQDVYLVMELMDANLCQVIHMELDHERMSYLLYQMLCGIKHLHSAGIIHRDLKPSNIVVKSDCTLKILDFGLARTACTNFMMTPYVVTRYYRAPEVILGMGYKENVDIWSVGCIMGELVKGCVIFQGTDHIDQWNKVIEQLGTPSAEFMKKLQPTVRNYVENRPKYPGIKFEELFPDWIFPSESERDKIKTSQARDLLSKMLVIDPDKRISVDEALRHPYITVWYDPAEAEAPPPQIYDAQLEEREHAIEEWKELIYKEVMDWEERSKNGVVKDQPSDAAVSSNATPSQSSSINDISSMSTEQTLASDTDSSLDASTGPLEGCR

Row | SMILES | IC50 [1] [µM] | IC50 [2] [µM] | IC50 [3] [µM] | Amount of NO Released (mol/mol) 1 h [4] [mol/mol] | Amount of NO Released (mol/mol) 2 h [4] [mol/mol] | Amount of NO Released (mol/mol) 3 h [4] [mol/mol] | Amount of NO Released (mol/mol) 4 h [4] [mol/mol] | IC50 (JNK-2) [µM] | CC50 at 24 h [5] [µM] | percentage of apoptotic Hela cells (Hela cells) [%]
1 | COc1cc(/C(C)=N/O)ccc1OC(=O)c1cc(-c2ccc(C)cc2)n(-c2ccccc2)n1 [Compound 8b, (E)–4–(1–(Hydroxyimino)ethyl)–2–methoxyphenyl 1–phenyl–5–p–tolyl–1H–pyrazole–3–carboxylate] | 35.7 | 27 | 10 | 0.102 ± 0.039 | 0.159 ± 0.019 | 0.105 ± 0.025 | 0.095 ± 0.030 | – | – | –
2 | C/C(=N\O)c1ccc(NC(=O)c2cc(-c3ccccc3)n(-c3ccc(S(N)(=O)=O)cc3)n2)cc1 [Compound 10a, (E)–N–(4–(1–(Hydroxyimino)ethyl)phenyl)–5–phenyl–1–(4–sulfamoylphenyl)–1H–pyrazole–3–carboxamide] | – | – | 26 | 0.054 ± 0.023 | 0.108 ± 0.043 | 0.069 ± 0.024 | 0.036 ± 0.012 | – | – | –
3 | COc1ccc(-c2cc(C(=O)Oc3ccc(/C(C)=N/O)cc3OC)nn2-c2ccc(S(N)(=O)=O)cc2)cc1 [Compound 8h, (E)–4–(1–(Hydroxyimino)ethyl)–2–methoxyphenyl 5–(4–methoxyphenyl)–1–(4–sulfamoyl phenyl)–1H–pyrazole–3–carboxylate] | – | 26 | – | 0.099 ± 0.029 | 0.158 ± 0.014 | 0.104 ± 0.033 | 0.094 ± 0.0022 | – | – | –
4 | COc1cc(/C(C)=N/O)ccc1OC(=O)c1cc(-c2ccccc2)n(-c2ccccc2)n1 [Compound 8a, (E)–4–(1–(Hydroxyimino)ethyl)2–methoxyphenyl 1,5–diphenyl–1H–pyrazole–3–carboxylate] | – | – | – | 0.095 ± 0.036 | 0.121 ± 0.047 | 0.108 ± 0.042 | 0.056 ± 0.022 | – | – | –
5 | COc1ccc(-c2cc(C(=O)Nc3ccc(/C(C)=N/O)cc3)nn2-c2ccc(S(N)(=O)=O)cc2)cc1OC [Compound 10c, (E)–5–(3,4–Dimethoxyphenyl)–N–(4–(1–(hydroxyimino)ethyl)phenyl)–1–(4–sulfamoyl phenyl)–1H–pyrazole–3–carboxamide] | – | 13 | – | 0.075 ± 0.036 | 0.151 ± 0.049 | 0.114 ± 0.030 | 0.081 ± 0.020 | – | – | –
6 | COc1cc(/C(C)=N/O)ccc1OC(=O)c1cc(-c2ccc(Cl)cc2)n(-c2ccc(S(N)(=O)=O)cc2)n1 [Compound 8i, (E)–4–(1–(Hydroxyimino)ethyl)–2–methoxyphenyl 5–(4–chlorophenyl)–1–(4–sulfamoyl phenyl)–1H–pyrazole–3–carboxylate] | – | 62 | – | 0.105 ± 0.029 | 0.115 ± 0.018 | 0.109 ± 0.046 | 0.087 ± 0.035 | 1 | > 100 | 17.3
7 | COc1ccc(-c2cc(C(=O)Oc3ccc(/C(C)=N/O)cc3OC)nn2-c2ccccc2)cc1OC [Compound 8e, (E)–4–(1–(Hydroxyimino)ethyl)–2–methoxyphenyl 5–(3,4–dimethoxy phenyl)–1–phenyl–1H–pyrazole–3–carboxylate] | 4.7 | – | – | 0.064 ± 0.022 | 0.120 ± 0.046 | 0.081 ± 0.030 | 0.048 ± 0.018 | – | – | –
8 | COc1cc(/C(C)=N/O)ccc1OC(=O)c1cc(-c2ccc(Cl)cc2)n(-c2ccccc2)n1 [Compound 8d, (E)–4–(1–(Hydroxyimino)ethyl)–2–methoxyphenyl 5–(4–chlorophenyl)–1–phenyl–1H–pyrazole–3–carboxylate] | – | – | – | 0.096 ± 0.036 | 0.106 ± 0.040 | 0.101 ± 0.038 | 0.079 ± 0.030 | 49 | – | –
9 | COc1ccc(-c2cc(C(=O)Nc3ccc(/C(C)=N/O)cc3)nn2-c2ccc(S(N)(=O)=O)cc2)cc1 [Compound 10b, (E)–N–(4–(1–(Hydroxyimino)ethyl)phenyl)–5–(4–methoxyphenyl)–1–(4–sulfamoylphenyl)–1H–pyrazole–3–carboxamide] | – | – | 36 | 0.095 ± 0.035 | 0.114 ± 0.046 | 0.079 ± 0.031 | 0.031 ± 0.018 | – | – | –
10 | COc1cc(/C(C)=N/O)ccc1OC(=O)c1cc(-c2ccccc2)n(-c2ccc(S(N)(=O)=O)cc2)n1 [Compound 8f, (E)–4–(1–(Hydroxyimino)ethyl)–2–methoxyphenyl 5–phenyl–1–(4–sulfamoyl phenyl)–1H–pyrazole–3–carboxylate] | 22.3 | – | – | 0.096 ± 0.036 | 0.116 ± 0.045 | 0.079 ± 0.030 | 0.048 ± 0.018 | – | – | –
